Source: ChEMBL document CHEMBL1629692, “Susceptibility of gram-negative pathogens isolated from patients with complicated intra-abdominal infections in the United States, 2007-2008: results of the Study for Monitoring Antimicrobial Resistance Trends (SMART)” (2010)

Assays:
Assay type in all cases: functional
Pseudomonas fluorescens [1] = assay: Antimicrobial activity against Pseudomonas fluorescens assessed as percent susceptible isolates by agar dilution method
Pasteurella sp. [2] = assay: Antimicrobial activity against Pasteurella sp. assessed as percent susceptible isolates by agar dilution method
Acinetobacter sp. [3] = assay: Antimicrobial activity against Acinetobacter sp. assessed as percent susceptible isolates by agar dilution method
Citrobacter freundii [4] = assay: Antimicrobial activity against Citrobacter freundii obtained from patient with complicated intra-abdominal infection assessed as percent susceptible isolates by agar dilution method
Pseudomonas aeruginosa [5] = assay: Antimicrobial activity against Pseudomonas aeruginosa assessed as percent susceptible isolates by agar dilution method
[6] = tested on: Stenotrophomonas maltophilia; assay: Antimicrobial activity against Stenotrophomonas maltophilia assessed as percent susceptible isolates by agar dilution method
Klebsiella aerogenes [7] = assay: Antimicrobial activity against Enterobacter aerogenes obtained from patient with complicated intra-abdominal infection assessed as percent susceptible isolates by agar dilution method
Serratia marcescens [8] = assay: Antimicrobial activity against Serratia marcescens assessed as percent susceptible isolates by agar dilution method
Klebsiella pneumoniae [9] = assay: Antimicrobial activity against extended-spectrum beta-lactamase-positive Klebsiella pneumoniae assessed as percent susceptible isolates by agar dilution method
Escherichia coli [10] = assay: Antimicrobial activity against extended-spectrum beta-lactamase-positive Escherichia coli obtained from patient with complicated intra-abdominal infection assessed as percent susceptible isolates by agar dilution method
Klebsiella oxytoca [11] = assay: Antimicrobial activity against extended-spectrum beta-lactamase-positive Klebsiella oxytoca assessed as percent susceptible isolates by agar dilution method
Proteus mirabilis [12] = assay: Antimicrobial activity against extended-spectrum beta-lactamase-positive Proteus mirabilis assessed as percent susceptible isolates by agar dilution method
Escherichia coli [13] = assay: Antimicrobial activity against extended-spectrum beta-lactamase-negative Escherichia coli obtained from patient with complicated intra-abdominal infection assessed as percent susceptible isolates by agar dilution method
Escherichia coli [14] = assay: Antimicrobial activity against Escherichia coli obtained from patient with complicated intra-abdominal infection assessed as percent susceptible isolates by agar dilution method
Klebsiella pneumoniae [15] = assay: Antimicrobial activity against Klebsiella pneumoniae assessed as percent susceptible isolates by agar dilution method
Enterobacteriaceae = assay: Antimicrobial activity against Enterobacteriaceae Extended-Spectrum beta-lactamase positive assessed as percent susceptible isolates by agar dilution method
Klebsiella pneumoniae [16] = assay: Antimicrobial activity against extended-spectrum beta-lactamase-negative Klebsiella pneumoniae assessed as percent susceptible isolates by agar dilution method
Enterobacter cloacae [17] = assay: Antimicrobial activity against Enterobacter cloacae obtained from patient with complicated intra-abdominal infection assessed as percent susceptible isolates by agar dilution method
Pseudomonas fluorescens [18] = assay: Antimicrobial activity against Pseudomonas fluorescens assessed as percent susceptible isolates by agar dilution method in presence of beta-lactamase inhibitor Tazobactam
Escherichia coli [19] = assay: Antimicrobial activity against extended-spectrum beta-lactamase-negative Escherichia coli obtained from patient with complicated intra-abdominal infection assessed as percent susceptible isolates by agar dilution method in presence of beta-lactamase inhibitor Tazobactam
Pasteurella sp. [20] = assay: Antimicrobial activity against Pasteurella sp. assessed as percent susceptible isolates by agar dilution method in presence of beta-lactamase inhibitor Tazobactam
Pseudomonas aeruginosa [21] = assay: Antimicrobial activity against Pseudomonas aeruginosa assessed as percent susceptible isolates by agar dilution method in presence of beta-lactamase inhibitor Tazobactam
Proteus mirabilis [22] = assay: Antimicrobial activity against extended-spectrum beta-lactamase-positive Proteus mirabilis assessed as percent susceptible isolates by agar dilution method in presence of beta-lactamase inhibitor Tazobactam
Klebsiella pneumoniae [23] = assay: Antimicrobial activity against Klebsiella pneumoniae assessed as percent susceptible isolates by agar dilution method in presence of beta-lactamase inhibitor Tazobactam
Klebsiella aerogenes [24] = assay: Antimicrobial activity against Enterobacter aerogenes obtained from patient with complicated intra-abdominal infection assessed as percent susceptible isolates by agar dilution method in presence of beta-lactamase inhibitor Tazobactam
Escherichia coli [25] = assay: Antimicrobial activity against Escherichia coli obtained from patient with complicated intra-abdominal infection assessed as percent susceptible isolates by agar dilution method in presence of beta-lactamase inhibitor Tazobactam
Klebsiella pneumoniae [26] = assay: Antimicrobial activity against extended-spectrum beta-lactamase-negative Klebsiella pneumoniae assessed as percent susceptible isolates by agar dilution method in presence of beta-lactamase inhibitor Tazobactam
Klebsiella oxytoca [27] = assay: Antimicrobial activity against extended-spectrum beta-lactamase-positive Klebsiella oxytoca assessed as percent susceptible isolates be agar dilution method in presence of beta-lactamase inhibitor Tazobactam
Klebsiella pneumoniae [28] = assay: Antimicrobial activity against extended-spectrum beta-lactamase-positive Klebsiella pneumoniae assessed as percent susceptible isolates by agar dilution method in presence of beta-lactamase inhibitor Tazobactam
Escherichia coli [29] = assay: Antimicrobial activity against extended-spectrum beta-lactamase-positive Escherichia coli obtained from patient with complicated intra-abdominal infection assessed as percent susceptible isolates by agar dilution method in presence of beta-lactamase inhibitor Tazobactam
[30] = tested on: Stenotrophomonas maltophilia; assay: Antimicrobial activity against Stenotrophomonas maltophilia assessed as percent susceptible isolates by agar dilution method in presence of beta-lactamase inhibitor Tazobactam
Serratia marcescens [31] = assay: Antimicrobial activity against Serratia marcescens assessed as percent susceptible isolates by agar dilution method in presence of beta-lactamase inhibitor Tazobactam
Citrobacter freundii [32] = assay: Antimicrobial activity against Citrobacter freundii obtained from patient with complicated intra-abdominal infection assessed as percent susceptible isolates by agar dilution method in presence of beta-lactamase inhibitor Tazobactam
Acinetobacter sp. [33] = assay: Antimicrobial activity against Acinetobacter sp. assessed as percent susceptible isolates by agar dilution method in presence of beta-lactamase inhibitor Tazobactam
Enterobacter cloacae [34] = assay: Antimicrobial activity against Enterobacter cloacae obtained from patient with complicated intra-abdominal infection assessed as percent susceptible isolates by agar dilution method in presence of beta-lactamase inhibitor Tazobactam

SMILES | Activity (Pseudomonas fluorescens [1]) | Activity (Pasteurella sp. [2]) | Activity (Acinetobacter sp. [3]) | Activity (Citrobacter freundii [4]) | Activity (Pseudomonas aeruginosa [5]) | Activity [6] | Activity (Klebsiella aerogenes [7]) | Activity (Serratia marcescens [8]) | Activity (Klebsiella pneumoniae [9]) | Activity (Escherichia coli [10]) | Activity (Klebsiella oxytoca [11]) | Activity (Proteus mirabilis [12]) | Activity (Escherichia coli [13]) | Activity (Escherichia coli [14]) | Activity (Klebsiella pneumoniae [15]) | Activity (Klebsiella pneumoniae [16]) | Activity (Enterobacter cloacae [17]) | further results
CO/N=C(\C(=O)N[C@@H]1C(=O)N2C(C(=O)O)=C(CSc3nc(=O)c(O)nn3C)CS[C@H]12)c1csc(N)n1 [CEFTRIAXONE] | 15% | 15% | 15% | 67% | 17% | 15% | 79% | 100% | 19% | 38% | 89% | 100% | 98% | 96% | 85% | 99% | 64% | Activity (Enterobacteriaceae): 7%
CO[C@@]1(NC(=O)Cc2cccs2)C(=O)N2C(C(=O)O)=C(COC(N)=O)CS[C@@H]21 [CEFOXITIN] | – | – | – | 17% | – | – | 8% | 26% | 66% | 71% | 96% | 100% | 94% | 93% | 84% | 87% | 1% | –
O=C(O)c1cn(C2CC2)c2cc(N3CCNCC3)c(F)cc2c1=O [CIPROFLOXACIN] | 15% | 15% | 15% | 72% | – | 15% | 96% | 93% | 19% | 33% | 96% | 97% | 82% | – | 80% | – | – | –
NCC[C@H](O)C(=O)N[C@@H]1C[C@H](N)[C@@H](O[C@H]2O[C@H](CN)[C@@H](O)[C@H](O)[C@H]2O)[C@H](O)[C@H]1O[C@H]1O[C@H](CO)[C@@H](O)[C@H](N)[C@H]1O [AMIKACIN] | 31% | 31% | 31% | 100% | 96% | 31% | 100% | 100% | 69% | 71% | 100% | 100% | 100% | 98% | 95% | 100% | 99% | –
C[C@@H](O)[C@H]1C(=O)N2C(C(=O)O)=C(S[C@@H]3CN[C@H](C(=O)Nc4cccc(C(=O)O)c4)C3)[C@H](C)[C@H]12 | – | – | – | 94% | – | – | 100% | 100% | 78% | 100% | 100% | 100% | 99% | 99% | 96% | 100% | 92% | –
CC(C)(O/N=C(\C(=O)N[C@@H]1C(=O)N2C(C(=O)[O-])=C(C[n+]3ccccc3)CS[C@H]12)c1csc(N)n1)C(=O)O [CEFTAZIDIME] | 32% | 32% | 32% | 72% | 76% | 32% | 63% | 100% | 19% | 52% | 96% | 94% | 98% | 96% | 86% | 100% | 66% | Activity (Enterobacteriaceae): 31%
CO/N=C(\C(=O)N[C@@H]1C(=O)N2C(C(=O)O)=C(COC(C)=O)CS[C@H]12)c1csc(N)n1 [CEFOTAXIME] | 8% | 8% | 8% | 67% | 9% | 8% | 79% | 100% | 19% | 38% | 96% | 100% | 99% | 96% | 85% | 99% | 62% | Activity (Enterobacteriaceae): 6%
C[C@@H](O)[C@H]1C(=O)N2C(C(=O)O)=C(SCCNC=N)C[C@H]12 [IMIPENEM ANHYDROUS] | 69% | 69% | 69% | 100% | 78% | 69% | 100% | 100% | 94% | 100% | 100% | 93% | 100% | 100% | 99% | 100% | 100% | –
C[C@H]1COc2c(N3CCN(C)CC3)c(F)cc3c(=O)c(C(=O)O)cn1c23.C[C@H]1COc2c(N3CCN(C)CC3)c(F)cc3c(=O)c(C(=O)O)cn1c23.O [LEVOFLOXACIN] | 47% | 47% | 47% | 78% | 72% | 47% | 96% | 93% | 28% | 33% | 100% | 100% | 83% | 81% | 84% | 96% | 88% | –
CO/N=C(\C(=O)N[C@@H]1C(=O)N2C(C(=O)[O-])=C(C[N+]3(C)CCCC3)CS[C@H]12)c1csc(N)n1 | 23% | 23% | 23% | 94% | 72% | 23% | 100% | 100% | 47% | 48% | 96% | 100% | – | – | 91% | 100% | – | –
CCN1CCN(C(=O)N[C@@H](C(=O)N[C@@H]2C(=O)N3[C@@H]2SC(C)(C)[C@@H]3C(=O)O)c2ccccc2)C(=O)C1=O [PIPERACILLIN] | – | – | – | – | – | – | – | – | – | – | – | – | – | – | – | – | – | Activity (Pseudomonas fluorescens [18]): 23%; Activity (Escherichia coli [19]): 98%; Activity (Pasteurella sp. [20]): 23%; Activity (Pseudomonas aeruginosa [21]): 83%; Activity (Proteus mirabilis [22]): 100%; Activity (Klebsiella pneumoniae [23]): 85%; Activity (Klebsiella aerogenes [24]): 88%; Activity (Escherichia coli [25]): 96%; Activity (Klebsiella pneumoniae [26]): 97%; Activity (Klebsiella oxytoca [27]): 89%; Activity (Klebsiella pneumoniae [28]): 28%; Activity (Escherichia coli [29]): 62%; Activity [30]: 23%; Activity (Serratia marcescens [31]): 100%; Activity (Citrobacter freundii [32]): 72%; Activity (Acinetobacter sp. [33]): 23%; Activity (Enterobacter cloacae [34]): 69%
